Data from US7531320B2, “Modulation of β-catenin/TCF-activated transcription” (priority 2003, dated 2009).

Columns and labels:
[1] = Bioavailability study in rat; format: in vivo; details: i.v and p.o, 10 mg/kg, 20% Tween 80
Experimental: (§1) Bioavailability of COMPOUND 3, COMPOUND 4 and COMPOUND 5 was studied in mouse and rat. All the compounds were administered (i.v and p.o, 10 mg/kg) using the same vehicle (i.e., 20% Tween 80).

[2] = Metabolism in human liver microsome (HPLC/MS); format: in vitro ADME; details: 5 minutes to 1 hour
Experimental: (§2) FIG. 10. Metabolism analysis of COMPOUND3 • A. The diode Array trace (upper panel) and the total ion current (lower panel) for COMPOUND3 and metabolites thereof in rat. • B. The diode Array trace (upper panel) and the total ion current (lower panel) for COMPOUND3 and metabolites thereof in human.
(§3) Metabolism of COMPOUND 3 was analyzed by incubating the compound with rat or human liver microsome for 5 minutes to 1 hour, fractioning extracts of treated microsome through HPLC and subjecting the fractions to MS analysis.

[3] = Metabolism in rat liver microsome (HPLC/MS); format: in vitro ADME; details: 5 minutes to 1 hour
Experimental: as §2, §3

[4] = test system: HL60; details: HL60, Leukemia
Experimental: (§4) Cytotoxicity of COMPOUND 3 (an analog of COMPOUND 1, FIG. 1A) and other anticancer therapeutics were measured using cancer cells with various origins.

[5] = test system: PC3; details: PC3, Prostate
Experimental: as §4

[6] = test system: 293; details: 293, Renal
Experimental: as §4

[7] = test system: MCF7; details: MCF7, Breast
Experimental: as §4

[8] = test system: A549; details: A549, Lung
Experimental: as §4

[9] = test system: RPM17951; details: RPM17951, Melanoma
Experimental: as §4

[10] = Bioavailability study in mouse; format: in vivo; details: i.v and p.o, 10 mg/kg, 20% Tween 80
Experimental: as §1

[11] = test system: Min mouse; assay: Polyp number in Min mouse model; format: in vivo
Experimental: COMPOUND 4, COMPOUND 5, or vehicle was administrated in wild type and Min mice. COMPOUND 4 is also an analog of COMPOUND 1 (FIG. 1A). The numbers of polyp formed in small intestine and colon of these mice after various treatments were measured (Table 6).

| Bioavailability [10] [%] | SMILES | Bioavailability [1] | Metabolites observed [2] | Metabolites observed [3] | Cytotoxicity [4] [µg/mL] | Cytotoxicity [5] [µg/mL] | Cytotoxicity [6] [µg/mL] | Cytotoxicity [7] [µg/mL] | Cytotoxicity [8] [µg/mL] | Cytotoxicity [9] [µg/mL] | Effect on number of polyp compared to vehicle control ([11]; Min mice, about 300 mpk) | Polyp Number (Mean + S.D.), Total ([11]; Min mouse) | Polyp Number (Mean + S.D.), Colon ([11]; Min mouse, 100 mpk) | Polyp Number (Mean + S.D.), Small intestine ([11]; Min mouse, 100 mpk) | Polyp Number (Mean + S.D.), Colon ([11]; Min mouse, 300 mpk) | Polyp Number (Mean + S.D.), Small intestine ([11]; Min mouse, 300 mpk) | Polyp Number (Mean + S.D.), Total ([11]; Min mouse, 300 mpk) | % Inhibition vs. VH ([11]; Min mouse, 300 mpk, total polyp number vs. vehicle) [%] |
| --- | --- | --- | --- | --- | --- | --- | --- | --- | --- | --- | --- | --- | --- | --- | --- | --- | --- | --- |
|  | CN1CC(=O)N2C(Cc3ccc(O)cc3)C(=O)N(Cc3cccc4ccccc34)CC2N1C(=O)NCc1ccccc1 (stereo not drawn) [COMPOUND 3] | about 24% | Several metabolites (e.g., M1, M2, M3) were observed | Several metabolites (e.g., M1, M2, M3) were observed | 1.243 | 1.207 | 0.731 | 7.355 | 1.386 | 0.936 |  |  |  |  |  |  |  |  |
| ~0 | CN1CC(=O)N2C(Cc3ccc(O)cc3)C(=O)N(Cc3ccc(F)cc3F)CC2N1C(=O)NCc1ccccc1 (stereo not drawn) [COMPOUND 5] |  |  |  |  |  |  |  |  |  | reduce the number of polyp | 71.4 ± 23.0 | 1.7 ± 1.5 | 69.2 ± 20.8 | 1.1 ± 1.2 | 46.1 ± 17.1 | 47.0 ± 16.9 | 31 |
